Four molecules from ChEMBL document CHEMBL4311961, “Inhaled Janus Kinase (JAK) inhibitors for the treatment of asthma” (Bioorg Med Chem Lett, 2019) can be followed below.

As a reminder, the inhibition in vivo is the relative decrease from the control value, in per cent. A higher inhibition in vivo goes with a response far below the control. The pKa is the negative logarithm of the acid dissociation constant. By Papp A→B is commonly meant how fast a substance crosses the layer from the apical side.

≈ marks a conversion by molar mass, not a printed value.

Data set [1] has as its system Rattus norvegicus. The data set can be described thus: In vivo inhibition of eosinophils in rat bronchoalveolar lavage fluid at 0.6 ug/kg administered as dry powder inhalation relative to control. In kind it is functional. The conditions noted are these: inhaled or nasal.
Data set [2] concerns Rattus norvegicus. Put plainly: In vivo inhibition of eosinophils in rat bronchoalveolar lavage fluid at 4.76 ug/kg administered as dry powder inhalation relative to control. Type of data set: functional. The conditions noted are these: inhaled or nasal.
The target of data set [3] is Janus Kinase (JAK) (Homo sapiens) (UniProt P52333+P23458+O60674+P29597).
Description: Binding affinity to JAK in human PBMC assessed as half life measured after compound washout was out
A short description of data set [4]: Dissociation constant, pKa of compound. In kind it is physicochemical.
Another data set concerns Mus musculus. Put plainly: In vivo inhibition of IL13 induced STAT6 phosphorylation in mouse lung administered as i.t dose relative to ocntrol. Type of data set: functional.
Data set [5] is described as follows: Kinetic solubility of the compound at pH 7.4. In kind it is physicochemical. Particulars: buffer, read-out: Kinetic_solubility.
Data set [6] in a line: Apparent permeability from apical to basolateral side in MDCK cells. Type of data set: ADME, cell-based, Canis lupus familiaris. The conditions noted are these: dog.

`COC[C@H](C(=O)Nc1cccc2c(-c3nc(Nc4cccc(S(C)(=O)=O)c4F)ncc3F)c[nH]c12)N1CCN(C)CC1` [LONDAMOCITINIB]: at 0.0006 mg/kg the inhibition in vivo in the data set with Rattus norvegicus [1] was 68%. The same molecule had an inhibition in vivo at 0.00476 mg/kg in the data set on Rattus norvegicus [2] of 61%. The molecule `CCc1cc(O)c(F)cc1-c1ccc2c(-c3nc4c([nH]3)CCN(C(=O)c3cnc(N5CCCCC5)cn3)C4)n[nH]c2c1` returned a T1/2 in data set [3] of 9 h. As to `CCc1cc(O)c(F)cc1-c1ccc2c(-c3nc4c([nH]3)CCN(C3CCN(C)CC3)C4)n[nH]c2c1`, the pKa in data set [4] was 10.5. For the same molecule, the “inhibition (INH)” value in the data set on Mus musculus came out at 60%.

Take `CN(CCC#N)C1CCN(C(=O)Cn2cc(NC(=O)c3cnn4cccnc34)c(-c3cc(Cl)ccc3OC(F)F)n2)CC1`: the solubility kinetic in data set [5] turned out to be 34 µM (≈ 20.8 µg/mL). Moreover, in data set [6], the Papp A→B was 2.7 ×10⁻⁶ cm/s.
